Laboratory results as given in article PMC8209004, “Structural basis of GTPase-mediated mitochondrial ribosome biogenesis and recycling” (Nature Communications, 2021).

Target: T1, GTPBP6 (Homo sapiens, UniProt O43824)
T1 construct: Δ43GTPBP6 (first 43 residues removed); 6xHis-MBP tag cleaved with TEV; expressed in E. coli BL21 (DE3) RIL; modelled residues 94-515
T1 sequence (O43824 44-516): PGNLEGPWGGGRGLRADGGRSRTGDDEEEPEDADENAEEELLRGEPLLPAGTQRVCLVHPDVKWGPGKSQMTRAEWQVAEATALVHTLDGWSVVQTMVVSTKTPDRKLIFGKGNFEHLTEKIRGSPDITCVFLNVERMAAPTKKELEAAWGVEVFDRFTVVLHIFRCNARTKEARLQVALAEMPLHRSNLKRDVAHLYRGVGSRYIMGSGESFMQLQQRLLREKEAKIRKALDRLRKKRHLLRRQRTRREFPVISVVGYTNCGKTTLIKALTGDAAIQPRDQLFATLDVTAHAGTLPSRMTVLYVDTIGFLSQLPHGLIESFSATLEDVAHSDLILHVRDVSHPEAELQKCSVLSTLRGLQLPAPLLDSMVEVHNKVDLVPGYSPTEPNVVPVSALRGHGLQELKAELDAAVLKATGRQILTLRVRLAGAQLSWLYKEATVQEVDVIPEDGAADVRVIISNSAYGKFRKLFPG
Assay: cryo-EM structure of GTPBP6-bound mtLSU
Type: binding
Conditions: bound in GTPase domain; 1 mM GTP and 1 mM ATP, pH 7.4, 4 °C; biogenesis intermediate at 2.6 Å and mature mtLSU at 2.7 Å

**Q.** With `Nc1nc2c(ncn2[C@@H]2O[C@H](COP(=O)(O)OP(=O)(O)OP(=O)(O)O)[C@@H](O)[C@H]2O)c(=O)[nH]1` [GTP] as the compound, how does the “cryo-EM structure of GTPBP6-bound mtLSU” value read?
**A.** shows clear density for a bound GTP molecule
